Laboratory results as given in ChEMBL document CHEMBL4732257, “The optimization and characterization of functionalized sulfonamides derived from sulfaphenazole against Mycobacterium tuberculosis with reduced CYP 2C9 inhibition” (Bioorg Med Chem Lett, 2021).
Converted amounts (≈) assume the structure as drawn.

System: Mycobacterium tuberculosis
Assay: Antitubercular activity against isoniazid,streptomycin,rifampicin,ethambutol,para-aminosalicylate,prothionamide,capreomycin-resistant Mycobacterium tuberculosis 14862 assessed as bacterial growth inhibition
Assay type: functional

Row | SMILES | MIC [µg/mL]
1 | Cc1ccc(-n2nccc2NS(=O)(=O)c2ccc(N)cc2)cc1 | 11.9 (≈ 36.3 µM)
2 | NNC(=O)c1ccncc1 [ISONIAZID] | > 10
3 | COc1ccc(-n2nccc2NS(=O)(=O)c2ccc(N)cc2)cc1 | 10.6 (≈ 30.8 µM)
4 | Nc1ccc(S(=O)(=O)Nc2ccnn2-c2ccc(F)cc2)cc1 | 10.9 (≈ 32.7 µM)
5 | Nc1ccc(S(=O)(=O)Nc2ccnn2-c2ccccc2)cc1 [SULFAPHENAZOLE] | 12.6 (≈ 40 µM)
